Measurements: patent US20250042879A1, “HETEROCYCLIC SUBSTITUTED 1,3,4-THIADIAZOLE AND PYRIDAZINE COMPOUNDS AND METHODS OF USING THE SAME” (Rgenta Therapeutics, Inc., priority 2021, published 2025)
Structures can show the parent of a compound that is named as a salt.

Tested on: HTT
Test: Mini-gene reporter assay-HTT (firefly luciferase, exon inclusion)
Type: cell-based
Details: for EC50: Homo sapiens, HTT mini-gene firefly luciferase reporter transiently transfected into HEK293 cells; for Emax at 5 µM: HTT Minigene, read-out: % Efficacy at 5 μM
From the text: Mini-gene reporter constructs for each target site were constructed by first PCR amplifying the region-of-interest including the sequence of the alternatively skipped, sequences of the immediate upstream and downstream introns, and sequences of the immediate upstream and downstream exons. Then the 3′end of the amplified sequence was ligated to a firefly luciferase reporter gene and cloned into the pcDNA3.1 vector backbone. The final reporter construct was transiently transfected into HEK293 cells using Lipofectamine 3000 transfection reagents. Compounds that can induce the inclusion of the skipped exon in the reporter construct would increase the reporter firefly luciferase activity.
Test compounds were diluted in duplicates and dispensed into an assay plate. Transient mini-gene reporter cell line stock was resuspended and dispensed into the assay plate. Assay plates were then centrifuged and incubated. A luciferase reagent (e.g. ONE-Glo firefly luciferase reagent from Promega®) was added to the assay plate and the luminescence (RLU) signals recorded. EC50 values were determined by curve fitting in Levenberg-Marquardt algorithm.

| SMILES | EC50 | Emax at 5 µM |
| --- | --- | --- |
| CCN1CC(c2ccc(-c3ccc(-c4ccc5nn(C)cc5n4)cc3O)nn2)C1 [Compound 50, 2-[6-(1-ethylazetidin-3-yl)pyridazin-3-yl]-5-{2-methyl-2H-pyrazolo[4,3-b]pyridin-5-yl}phenol] | 50 to 500 nM |  |
| CCOc1cc(-c2ccc(-c3ccc(C4CN(C)C4)nn3)c(O)c2)cc2cn(C)nc12 [Compound 55, 5-(7-ethoxy-2-methyl-2H-indazol-5-yl)-2-[6-(1-methylazetidin-3-yl)pyridazin-3-yl]phenol] | ≥ 1000 nM |  |
| COc1cc(-c2ccc(-c3ccc(C4CN(Cc5cc6n(n5)CCC6)C4)nn3)c(O)c2)cc2cn(C)nc12 [Compound 184] |  | 25 to 75% |
| Cc1cc2cc(-c3ccc(-c4ccc(C5CNC5)nn4)c(O)c3)cc(C)n2n1 [Compound 29, 2-[6-(azetidin-3-yl)pyridazin-3-yl]-5-{2,7-dimethylpyrazolo[1,5-a]pyridin-5-yl}phenol] | 500 to 1000 nM |  |
| Cc1cn2cc(-c3ccc(-c4ccc(C5CN(C6CCN(C)CC6)C5)nn4)c(O)c3)cc(F)c2n1 [Compound 75] |  | 25 to 75% |
| Cc1cn2nc(-c3ccc(-c4ccc(C5CN(C6CCOCC6)C5)nn4)c(O)c3)ccc2n1 [Compound 63, 5-(2-methylimidazo[1,2-b]pyridazin-6-yl)-2-(6-(1-(tetrahydro-2H-pyran-4-yl)azetidin-3-yl)pyridazin-3-yl)phenol hydrochloride] | 500 to 1000 nM |  |
| CCC(C)(CN1CC(c2ccc(-c3ccc(-c4cc(OC)c5nn(C)cc5c4)cc3O)nn2)C1)OC (centres unmarked) [Compound 178] |  | < 25% |
| COc1cc(-c2ccc(-c3ccc(C4CN(C(C)C5CCOC5)C4)nn3)c(O)c2)cc2cn(C)nc12 (centres unmarked) [Compound 151] |  | > 750% |
| CCN1CC(c2ccc(-c3ccc(-c4cc(F)c5nc(C)cn5c4)cc3O)nn2)C1 [Compound 17, 2-[6-(1-ethylazetidin-3-yl)pyridazin-3-yl]-5-{8-fluoro-2-methylimidazo[1,2-a]pyridin-6-yl}phenol] | 50 to 500 nM |  |
| Cc1cn2cc(-c3ccc(-c4ccc(C5CNC5)nn4)c(O)c3)cc(F)c2n1 [Compound 1, 2-(6-(azetidin-3-yl)pyridazin-3-yl)-5-(8-fluoro-2-methylimidazo[1,2-a]pyridin-6-yl)phenol] | 50 to 500 nM |  |
| Cc1cn2cc(-c3ccc(-c4ccc(C5CN(Cc6cnn(C)c6)C5)nn4)c(O)c3)cc(F)c2n1 [Compound 71] |  | > 750% |
| Cc1cn2cc(-c3ccc(-c4ccc(C5CN(C(C)Cc6cnn(C)c6)C5)nn4)c(O)c3)cc(F)c2n1 (centres unmarked) [Compound 106] |  | > 750% |
| COc1cc(-c2ccc(-c3ccc(C4CN(C5CC6(CCOCC6)C5)C4)nn3)c(O)c2)cc2cn(C)nc12 [Compound 171] |  | 25 to 75% |
| Cc1cc(-c2ccc(-c3ccc(C4CNC4)nn3)c(O)c2)cc2cn(C)nc12 [Compound 6, 2-(6-(azetidin-3-yl)pyridazin-3-yl)-5-(2,7-dimethyl-2H-indazol-5-yl)phenol hydrochloride] | 500 to 1000 nM |  |
| COc1cc(-c2ccc(-c3ccc(C4CN(C5CCCOCC5)C4)nn3)c(O)c2)cc2cn(C)nc12 (centres unmarked) [Compound 155] |  | > 750% |
| COc1cc(-c2ccc(-c3ccc(C4CN(C(C)C5CCC5)C4)nn3)c(O)c2)cc2cn(C)nc12 (centres unmarked) [Compound 157] |  | > 750% |
| Cc1cn2cc(-c3ccc(-c4ccc(C5CN(C6CCOCC6C)C5)nn4)c(O)c3)cc(F)c2n1 (centres unmarked) [Compound 85] |  | > 750% |
| CCN1CC(c2ccc(-c3ccc(-c4cc(C)c5nc(C)cn5n4)cc3O)nn2)C1 [Compound 42, 5-{2,8-dimethylimidazo[1,2-b]pyridazin-6-yl}-2-[6-(1-ethylazetidin-3-yl)pyridazin-3-yl]phenol] | ≥ 1000 nM |  |
| CCN1CC(c2ccc(-c3ccc(-c4cc(C)c5nn(C)cc5c4)cc3O)nn2)C1 [Compound 34, 5-(2,7-dimethyl-2H-indazol-5-yl)-2-[6-(1-ethylazetidin-3-yl)pyridazin-3-yl]phenol] | 50 to 500 nM |  |
| COc1cc(-c2ccc(-c3ccc(C4CN(C5CCCSC5)C4)nn3)c(O)c2)cc2cn(C)nc12 (centres unmarked) [Compound 142] |  | 25 to 75% |
